The test system of experiment [1] is osteoclast precursors. The experiment in a line: Differentiation test of osteoclasts (RANKL/M-CSF induced, TRAP staining). In kind it is cell-based, Wistar rats. The conditions noted are these: for effect of ICI 182,780 on the inhibition of osteoclast formation: 1 nM ICI 182,780 (antagonist of estrogen receptors), result in words. On the procedure: Bone marrow was taken out from the femurs and tibiae of Wistar rats, and bone marrow cavities were washed with a α-minimum essential medium (Hyclone, Logan, Utah, USA) comprising a 20 mmol HEPES buffer solution, 10 vol % heat-inactivated fetal bovine serum, 2 mmol glutamine, 100 U/ml penicillin, and 100 µg/ml streptomycin. After 24 hours, inadhesive hematopoietic cells that were washed were collected, and were used as osteoclast precursors.
The aforesaid precursor cells were incubated in 24-wells culture plates with a density of 1×10^6 cells/well, and the culture plates comprised soluble human recombinant RANKL (50 ng/ml, PeproTech EC, London, UK) and M-CSF (20 ng/ml, PeproTech EC). Under the induction of M-CSF and RANKL, the precursor cells may differentiate into osteoclasts.
Then, various concentrations of the Flemingia macrophylla extract or Lespedeza flavanone A were added into the culture plates, and culture medium was replaced once every 3 days. On the ninth day, osteoclasts were stained with a TRAP staining kit, and the formation of osteoclasts was observed. The cells were then fixed with 10 vol % formaldehyde (in a phosphate buffer solution) for three minutes, and were stained with Naphthol AS-Mx phosphate and a tartaric acid solution at 37° C. for 1 hour. TRAP-positive multinucleated osteoclasts with more than three nuclei were regarded as osteoclasts (see Asagiri et al., The molecular understanding of osteoclast differentiation, Bone, 2007, 40: 251-64, which is entirely incorporated hereinto by reference).
To clarify the mechanism of Lespedeza flavanone A, an experiment was carried out with 1 nM ICI 182,780 (an antagonist of estrogen receptors) (see Howell et al., ICI 182,780 (Faslodex): development of a novel, “pure” antiestrogen, Cancer, 2000, 89: 817-825, which is entirely incorporated hereinto by reference), and influence of ICI 182,780 on the formation of osteoclasts was observed, and 10 nM 17β-estradiol was used for comparison.

Experiment [2] deals with OVX rats. Briefly: Density and content of minerals in tibiae (dual-energy X-ray absorptiometer). In kind it is in vivo, Wistar rats. The note with it: oral, alendronate 2.5 mg/kg-body weight per day, 13 weeks.
Text: Female Wistar rats (BioLASCO, Taipei, Taiwan) were used in the following experiments. […] The rats of which ovaries were removed (i.e., ovariectomized rat) are represented as “OVX rats” hereinafter. In the control group (i.e., a sham group), the skin and muscle on the ovary positions at both sides of the dorsum of the rats were incised and then sutured, while the ovaries were not removed.
In experiment [3] the test system is OVX rats. The experiment in a line: Tissue analysis of tibiae (H&E, TRAP staining). In kind it is in vivo, Wistar rats. The conditions noted are these: oral, alendronate 2.5 mg/kg-body weight per day, 13 weeks. The method, then:
(§1) Female Wistar rats (BioLASCO, Taipei, Taiwan) were used in the following experiments. In an experiment group, the rats were anesthetized with 40 mg/kg-body weight of pentobarbital sodium, and ovaries in both sides of the dorsum of the rats were removed to induce osteoporosis, and a decrease in estrogen of the postmenopausal female rats was observed. The rats of which ovaries were removed (i.e., ovariectomized rat) are represented as “OVX rats” hereinafter. In the control group (i.e., a sham group), the skin and muscle on the ovary positions at both sides of the dorsum of the rats were incised and then sutured, while the ovaries were not removed.
(§2) After one week from the surgery, the control group was administrated water orally every day. […] During the administration, the body weight of each rat was measured once a week until the last day of the administration. Distilled water was added into the extract to form a suspension, and the rats were administrated orally with 1 ml/100 g-body weight of the suspension.
The left tibiae of the rats in Example 3 were taken and fixed with 4 vol % metaformaldehyde (in a phosphate buffer solution, PBS, pH 7.4) for 48 hours, and calcium was removed in a solution (pH 7.4) of 10 wt % EDTA (ethylenediamine tetraacetic acid) at 4° C. for 4 weeks. After calcium was removed, the bones were cut to generate a cross-section, and tissue staining was carried out with hematoxylin and eosin. […] The microscope images were analyzed with a color image analysis system (Image-Pro Plus version 5.1, Media Cybernetics, Maryland, USA), and the volume of trabecular bones and the thickness of […] of metaphysis of the rats were measured. […]
In another aspect, the above cross-section was stained with a TRAP (tartrate-resistant acid phosphatase) kit (Sigma-Aldrich, St. Louis, Mo., USA), and the number of osteoclasts was measured (see Cole et al., Tartrate-resistant acid phosphatase in bone and cartilage following decalcification and cold-embedding in plastic. J Histochem Cyrochem, 1987: 35, 203-6, which is entirely incorporated hereinto by reference).

In experiment [4] the test system is OVX rats. Briefly: Biochemical values of blood and urine (ALP, calcium, DPD). In kind it is in vivo, Wistar rats. The note with it: oral, alendronate 2.5 mg/kg-body weight per day, 13 weeks. On the procedure: as §1, §2
The activity of ALP (alkaline phosphatase) and the content of calcium and creatinine in the blood and urine of the rats were measured with a clinical trial kit (Roche Diagnostics, Mannheim, Germany) and a spectrophotometric analyzer (Cobas Mira Plus, Roche, Rotkreuz, Switzerland), and the calcium content in the urine and blood of the rats was also measured with a method using o-cresolphthalein complexone (Randox, UK). ALP is a bio-indicator or molecular marker of an early activation stage of preosteoblasts, and based on ALP activity, the activation situation of preosteoblasts can be observed. The calcium content in the urine is represented as “mg/mmol creatinine in the urine.”
Moreover, the content of deoxypyridinoline (DPD) in the urine was measured with ELISA (enzyme linked immunosorbent assay) (an ELISA kit is purchased from Metra, San Diego, Calif., USA), and is represented as “[…] creatinine in the urine.” The results are shown in Table 5. […]

Experiment [5] deals with OVX rats. Briefly: Body weight and vagina weight of ovariectomized rats after 13 weeks of oral administration. The experiment is classed as in vivo, Wistar rats. The note with it: alendronate 2.5 mg/kg-body weight per day. On the procedure: as §1, §2
After the end of the administration in Example 2, the rats were anesthetized with a high dosage of pentobarbital sodium (65 mg/kg-body weight) and were sacrificed. Blood samples of the rats were then collected, and tibiae and vertebrae of the rats were dissected, and vaginas were taken out from the rats and the weight of the vaginas was measured.

In experiment [6] the test system is OVX rats. Briefly: Weight ratio of bone ash and calcium content of fifth vertebra. The experiment is classed as in vivo, Wistar rats. The note with it: bone ash, per bone volume, oral, alendronate 2.5 mg/kg-body weight per day, 13 weeks. On the procedure: as §1, §2
The fifth sections of the vertebrae of the rats in Example 3 were dissected in an ethanol bath and dried at 100° C. overnight, and the dry weight of the vertebrae was measured. […] After the cremation, bone ash was collected, and the weight ratio of the bone ash (represented as the percentage of the dry weight of the vertebrae) was measured. […]

Structures are written as SMILES.

In the case of `C[C@]12CC[C@@H]3c4ccc(O)cc4CC[C@H]3[C@@H]1CC[C@@H]2O` [17β-estradiol], the “effect of ICI 182,780 on the inhibition of osteoclast formation” value in experiment [1] was “clearly inhibited the inhibition effect”. Moreover, the “the percentage of osteoclast formation” value in experiment [1] (10.0 nM with ICI 182,780 (1 nM), day 9) is given as 83.0 ± 13.2 %; in experiment [1] (10.0 nM, day 9, control = 100) it was 57.7 ± 8.1 %.

As to `NCCCC(O)(P(=O)(O)O)P(=O)(O)O` [alendronate], in experiment [2], the mineral content worked out at 0.38 ± 0.01 g. Moreover, the osteoclast number/bone surface in experiment [3] (TRAP staining, tibia) stood at 2.7 ± 0.4 mm. Also, in experiment [3] (tibia metaphysis), the “thickness of dermal bones” value amounted to 215.0 ± 10.2 μm and the “trabecular bone volume/tissue volume” value is 36.1 ± 1.1 %. The “DPD content in urine” value in experiment [4] (ELISA) worked out at 281.2 ± 52.3 mg/mmol creatinine. In experiment [4] (blood serum), the ALP was 163.5 ± 24.0 U/L. The “calcium content in urine” value in experiment [4] is 45.2 ± 14.8 mg/mmol creatinine. Besides, in experiment [5], the “average body weight after 13 weeks from the surgery” value came out at 377.8 ± 36.5 g and the average vagina weight was 0.18 ± 0.01 g. Also, the calcium content in experiment [6] is 206.1 ± 24.2 mg/mL.

As to `COc1ccc([C@@H]2CC(=O)c3c(O)c(CC=C(C)C)c(O)c(CC=C(C)C)c3O2)c(O)c1` [LDF-A, 5,7,2-trihydroxy-6,8-di-r,r-dimethylallyl-4-methoxyflavanone], the “effect of ICI 182,780 on the inhibition of osteoclast formation” value in experiment [1] was “did not inhibit the inhibition effect”. The “the percentage of osteoclast formation” value turned out to be 65.0 ± 11.5% in experiment [1] (0.1 μM with ICI 182,780 (1 nM), day 9); 70.7 ± 9.5 % in experiment [1] (0.1 μM, day 9, control = 100); 49.0 ± 6.2% in experiment [1] (1.0 μM with ICI 182,780 (1 nM), day 9); 60.0 ± 5.2 % in experiment [1] (1.0 μM, day 9, control = 100); 26.0 ± 8.9% in experiment [1] (10.0 μM with ICI 182,780 (1 nM), day 9); 27.0 ± 2.6 % in experiment [1] (10.0 μM, day 9, control = 100).

The record behind these values is US20110082197A1, “Method for inhibiting formation and/or activation of osteoclasts using flemingia macrophylla extract or lespedeza flavanone A” (CHINA MEDICAL UNIVERSITY, priority 2009, published 2011).
